# What was measured:
# [1] = as a single drug, psoriasis treatment; placebo 20.2%; cited from earlier work
# [2] = test system: experimentally induced psoriasis in normal human skin grafted onto beige-SCID mice; assay: Study 2: histology of human skin xenograft psoriasis model in beige-SCID mice; assay type: in vivo; parameters: Mean Epidermal Thickness: unit not given here
# Source text: (§1) The objective of this study was to determine the efficacy of tapinarof composition as described in Example 8 compared to the vehicle and Dexamethasone as shown below. The evaluation was based on histology analysis following application of the respective test formulations.
# (§2) In this model, a psoriasis phenotype is induced in normal skin grafted onto beige-severe combined immunodeficient mice by intradermal injection of natural killer/T-cells derived from psoriatic patients (Gilhar et al., Psoriasis is mediated by a cutaneous defect triggered by activated immunocytes: induction of psoriasis by cells with natural killer receptors, J. Invest. Dermatol. 2002 August; 119(2):384-91).
# (§3) In order to address the aim of the experiment, the psoriatic humanized mice were established Additionally, 10 psoriatic patients were recruited (six males and four females), ranging from 21 to 66 years (mean age 45 years). All patients had classic plaque psoriasis. Normal skin from one healthy volunteer was obtained for grafting.
# (§4) The efficacy study has been conducted on female mice. The total duration of the experiment was 8 weeks, upon receiving of the human skin. Normal skin from healthy volunteers were obtained for grafting. Healthy human abdominal skin pieces with a width of 0.4 mm and surface area of 1.5×1.5 cm were provided. The skin sample was preserved in isotonic saline solution and transplanted within 6-12 hours after skin donation. In addition, blood samples were collected from psoriatic patients having classic plaque psoriasis and not undergoing any treatment. 20 mL blood samples were taken from both males and females psoriatic patients (from psoriatic patients having classic plaque psoriasis and not undergoing any treatment), and peripheral blood mononuclear cells (PBMC) were separated immediately after blood withdrawal.
# (§5) Mice: Beige-severe combined immunodeficient mice C.B-17/IcrHsdscid-bg (beige-SCID) mice (weight ˜25 g) were included in this study. Mice were monitored twice a week for vital signs such as weight, food intake, coat, eyes, anal genital areas, discharge/soiling, behavior and criteria related to skin transplantation. Normal healthy human donor skin were transplanted onto the beige-SCID mice as previously described (See Keren A. et al., Novel nanosome delivery system combined with siRNA targeting the antimicrobial gene DFB4: a new approach for psoriasis management? ExpDermatol. 2014; 23:464-465; Bracke S. et a/., Targeted silencing of DEFB4 in a bioengineered skin-humanized mouse model for psoriasis: development of siRNA SECosome-based novel therapies. ExpDermatol. 2014; 23:199-201; Zaretsky M. et al., Directed evolution of a soluble human IL-17A receptor for the inhibition of psoriasis plaque formation in a mouse model. Chem Biol. 2013 21; 20:202-2; Gilhar A. et al., The beneficial effect of blocking Kv1.3 in the psoriasiform SCID mouse model. J Invest Dermatol. 2011; 131:118 124; Keren A. et al., Innate lymphoid cells 3 induce psoriasis in xenotransplanted healthy human skin. J Allergy Clin Immunol. 2018; 142:305-308.e6).
# (§6) British Journal of Pharmacology 2010; 159:842-855).
# (§7) Four weeks following the engraftment, each mouse was injected (intradermally) with 1×10^7 IL-2 enriched allogeneic PBMC's from psoriatic patients (1×10^7 cells injected/mouse). Cells from different psoriasis patients were equally distributed between treatment groups. Each patient was represented in each treatment group.
# (§8) Fourteen days following cells injections, the mice were divided into treatment groups (Table 1, see below) and treated according to the timeline indicated below (see Scheme 1). Each transplant was equally topically treated (50 μg) by using a sterile spatula.
# (§9) Dexamethasone (D2915, Sigma): was freshly prepared for each administration by dilution in saline to final concentration (50 mg/ml). […]
# [3] = test system: HBD2, Psoriasin (S100A7), CD4, CD8, IL-17, IL-22; assay: Study 2: immunohistochemical markers for psoriasis in human xenotransplants; assay type: in vivo, beige-SCID mice; conditions: immunohistochemistry of xenotransplants
# [4] = test system: experimentally induced psoriasis in normal human skin grafted onto beige-SCID mice; assay: Study 1: histology of human skin xenograft psoriasis model in beige-SCID mice; assay type: in vivo; conditions: for Mean Epidermal Thickness: topical 14 days, grafts excised Day 56, mean ± SD
# Source text: as §1, §2, §3, §4, §5, §6, §7, §8, §9
# [5] = histological evaluation of human skin grafts
smiles,measurement,setting,value
C=C1/C(=C\C=C2/CCC[C@]3(C)[C@@H]([C@H](C)/C=C/[C@@H](O)C4CC4)CC[C@@H]23)C[C@@H](O)C[C@@H]1O [calcipotriene],adverse effects,[1],19.5%
C[C@@H]1C[C@H]2[C@@H]3CCC4=CC(=O)C=C[C@]4(C)[C@@]3(F)[C@@H](O)C[C@]2(C)[C@@]1(O)C(=O)CO [Dexamethasone],Proliferation index (%),[2],6 ± 2%
same,Baker score: Agranulosis - hypogranulosis,[2]; average ± SD,0.1 ± 0.3
same,"Baker score: Blood vessels (tortuosity, elongation)",[2]; average ± SD,0.05 ± 0.1
same,Baker score: Epidermal thickening (acanthosis),[2]; average ± SD,0.05 ± 0.1
same,Baker score: Hyperkeratosis,[2]; average ± SD,0 ± 0
same,Baker score: Mononuclear cells infiltrate in the papillary dermis,[2]; average ± SD,0 ± 0
same,Baker score: Munro micro abscess,[2]; average ± SD,0 ± 0
same,Baker score: Parakeratosis,[2]; average ± SD,0 ± 0
same,Baker score: Regular/abnormal elongation of rete ridges,[2]; average ± SD,0 ± 0
same,Baker score: Suprapapillary epidermal thinning,[2]; average ± SD,0.05 ± 0.1
same,"Histological Scoring (Baker system), Total Score",[2]; average ± SD,0.25 ± 0.8
same,Complete Recovery (grafts/total grafts),[2]; [5],10/10
same,Partial Recovery (grafts/total grafts),[2]; [5],0/10
same,Psoriatic Features (grafts/total grafts),[2]; [5],0/10
same,Mean Epidermal Thickness,[2]; mean ± SD,193 ± 71
same,CD4,[3],0.5 ± 0.8 Cells per 0.66 mm^2
same,CD8,[3],0.6 ± 0.6 Cells per 0.66 mm^2
same,"HBD2 (Integrated intensity, %)",[3],5.8 ± 0.9%
same,IL-17,[3],0.6 ± 0.9^ Cells per 0.66 mm^2
same,IL-22,[3],0.4 ± 0.8 Cells per 0.66 mm^2
same,"Psoriasin (S100A7) (Integrated intensity, %)",[3],6.6 ± 2.1%
same,Partial Recovery (percent of grafts),[4],(10%)
same,Psoriatic Features (percent of grafts),[4],(0%)
same,Baker score: Agranulosis - hypogranulosis,[4]; average ± SD,0.1 ± 0.3
same,"Baker score: Blood vessels (tortuosity, elongation)",[4]; average ± SD,0.05 ± 0.1
same,Baker score: Epidermal thickening (acanthosis),[4]; average ± SD,0.05 ± 0.1
same,Baker score: Hyperkeratosis,[4]; average ± SD,0.05 ± 0.1
same,Baker score: Mononuclear cells infiltrate in the papillary dermis,[4]; average ± SD,0.2 ± 0.6
same,Baker score: Munro micro abscess,[4]; average ± SD,0 ± 0
same,Baker score: Parakeratosis,[4]; average ± SD,0.1 ± 0.3
same,Baker score: Regular/abnormal elongation of rete ridges,[4]; average ± SD,0.1 ± 0.4
same,Baker score: Suprapapillary epidermal thinning,[4]; average ± SD,0.05 ± 0.1
same,"Histological Scoring (Baker system), Total Score",[4]; average ± SD,0.7 ± 1.9
same,Complete Recovery (grafts/total grafts),[4]; [5],9/10
same,Partial Recovery (grafts/total grafts),[4]; [5],1/10
same,Psoriatic Features (grafts/total grafts),[4]; [5],0/10
same,Mean Epidermal Thickness,[4],254±59 μm
same,Mean Epidermal Thickness,[4]; listed as Dexamethasone 2 mg,254 ± 59 μm
"CC(C)c1c(O)cc(/C=C/c2ccccc2)cc1O [Tapinarof, 3,5-dihydroxy-4-isopropyl-trans-stilbene]",adverse effects,[1],44.5%
